In ChEMBL document CHEMBL5055685, “Discovery of the First Potent IDO1/IDO2 Dual Inhibitors: A Promising Strategy for Cancer Immunotherapy” (J Med Chem, 2021):
Active and inactive are the calls of the source. The rule behind the calls is not given here.

Legend:
[1] = biological target: Serine/threonine-protein kinase Sgk3 (Homo sapiens) (UniProt Q96BR1); test: Inhibition of SGK3 (unknown origin) at 1 uM
[2] = biological target: Indoleamine 2,3-dioxygenase 1 (Mus musculus) (UniProt P28776); test: In vivo inhibition of IDO1 in BALB/c mouse xenografted with human HCT-116 cells assessed as suppression of IDO1 expression in tumor by immunohistochemical assay; type: functional, organism-based
[3] = biological target: Ribosomal protein S6 kinase beta-2 (Homo sapiens) (UniProt Q9UBS0); test: Inhibition of p70S6Kb (unknown origin) at 1 uM
[4] = biological target: Serine/threonine-protein kinase Sgk1 (Homo sapiens) (UniProt O00141); test: Inhibition of SGK1 (unknown origin) at 1 uM
Serine/threonine-protein kinase Sgk1 (Homo sapiens), sequence (O00141 whole entry): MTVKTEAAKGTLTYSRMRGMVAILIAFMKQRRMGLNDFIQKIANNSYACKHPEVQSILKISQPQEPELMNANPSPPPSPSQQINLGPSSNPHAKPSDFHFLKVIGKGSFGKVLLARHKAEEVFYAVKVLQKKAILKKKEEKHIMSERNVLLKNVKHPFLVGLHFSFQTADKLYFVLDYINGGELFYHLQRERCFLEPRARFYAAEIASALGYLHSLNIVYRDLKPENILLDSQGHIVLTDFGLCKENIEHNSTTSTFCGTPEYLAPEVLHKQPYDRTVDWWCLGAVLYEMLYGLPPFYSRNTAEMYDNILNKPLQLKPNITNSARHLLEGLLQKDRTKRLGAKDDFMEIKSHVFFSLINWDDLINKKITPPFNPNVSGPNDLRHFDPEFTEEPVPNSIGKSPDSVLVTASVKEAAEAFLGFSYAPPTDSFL

[5] = biological target: G protein-coupled receptor kinase 3 (Homo sapiens) (UniProt P35626); test: Inhibition of GRK3 (unknown origin) at 1 uM
HCT-116 [6] = test: Antitumor immunity in BALB/c mouse xenografted with human HCT-116 cells assessed as late Treg cells in spleen by propidium iodide staining based flow cytometry analysis (reference value: 10.3 %); type: functional
[7] = Metabolic stability in rat liver microsomes assessed as rate constant; type: ADME, Microsome
[8] = biological target: Tyrosine-protein kinase Mer (Homo sapiens) (UniProt Q12866); test: Inhibition of c-MER (unknown origin) at 1 uM
[9] = biological target: High affinity nerve growth factor receptor (Homo sapiens) (UniProt P04629); test: Inhibition of TRKA (unknown origin) at 1 uM
High affinity nerve growth factor receptor (Homo sapiens), sequence (P04629 33-796 limits assumed): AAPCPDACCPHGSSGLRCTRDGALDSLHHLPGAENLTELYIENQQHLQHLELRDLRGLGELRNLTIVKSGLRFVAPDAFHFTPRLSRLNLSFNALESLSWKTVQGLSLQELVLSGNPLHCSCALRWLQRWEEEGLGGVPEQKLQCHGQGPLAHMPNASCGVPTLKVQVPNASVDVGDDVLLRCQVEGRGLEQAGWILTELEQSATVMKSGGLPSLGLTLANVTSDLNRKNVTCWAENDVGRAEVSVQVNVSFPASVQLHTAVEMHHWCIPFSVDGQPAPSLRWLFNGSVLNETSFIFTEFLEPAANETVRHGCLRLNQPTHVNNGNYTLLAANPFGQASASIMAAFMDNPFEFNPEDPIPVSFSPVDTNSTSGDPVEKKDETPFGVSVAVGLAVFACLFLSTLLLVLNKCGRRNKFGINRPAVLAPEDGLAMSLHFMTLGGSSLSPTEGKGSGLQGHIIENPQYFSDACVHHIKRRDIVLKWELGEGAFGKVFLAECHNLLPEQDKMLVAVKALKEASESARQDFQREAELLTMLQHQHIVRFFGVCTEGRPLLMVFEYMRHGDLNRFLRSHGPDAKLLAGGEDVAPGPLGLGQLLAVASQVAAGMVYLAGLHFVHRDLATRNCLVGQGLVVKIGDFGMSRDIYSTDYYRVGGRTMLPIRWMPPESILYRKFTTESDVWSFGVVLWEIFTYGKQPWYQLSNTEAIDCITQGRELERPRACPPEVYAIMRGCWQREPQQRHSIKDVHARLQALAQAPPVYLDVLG

[10] = biological target: Serine/threonine-protein kinase 25 (Homo sapiens) (UniProt O00506); test: Inhibition of STK25 (unknown origin) at 1 uM
[11] = biological target: Serine/threonine-protein kinase B-raf (Homo sapiens) (UniProt P15056); test: Inhibition of BRAF (unknown origin) at 1 uM
[12] = biological target: Casein kinase I isoform delta (Homo sapiens) (UniProt P48730); test: Inhibition of CK1D (unknown origin) at 1 uM
[13] = biological target: Serine/threonine-protein kinase DCLK2 (Homo sapiens) (UniProt Q8N568); test: Inhibition of DCAMKL2 (unknown origin) at 1 uM
Serine/threonine-protein kinase DCLK2 (Homo sapiens), sequence (Q8N568 whole entry): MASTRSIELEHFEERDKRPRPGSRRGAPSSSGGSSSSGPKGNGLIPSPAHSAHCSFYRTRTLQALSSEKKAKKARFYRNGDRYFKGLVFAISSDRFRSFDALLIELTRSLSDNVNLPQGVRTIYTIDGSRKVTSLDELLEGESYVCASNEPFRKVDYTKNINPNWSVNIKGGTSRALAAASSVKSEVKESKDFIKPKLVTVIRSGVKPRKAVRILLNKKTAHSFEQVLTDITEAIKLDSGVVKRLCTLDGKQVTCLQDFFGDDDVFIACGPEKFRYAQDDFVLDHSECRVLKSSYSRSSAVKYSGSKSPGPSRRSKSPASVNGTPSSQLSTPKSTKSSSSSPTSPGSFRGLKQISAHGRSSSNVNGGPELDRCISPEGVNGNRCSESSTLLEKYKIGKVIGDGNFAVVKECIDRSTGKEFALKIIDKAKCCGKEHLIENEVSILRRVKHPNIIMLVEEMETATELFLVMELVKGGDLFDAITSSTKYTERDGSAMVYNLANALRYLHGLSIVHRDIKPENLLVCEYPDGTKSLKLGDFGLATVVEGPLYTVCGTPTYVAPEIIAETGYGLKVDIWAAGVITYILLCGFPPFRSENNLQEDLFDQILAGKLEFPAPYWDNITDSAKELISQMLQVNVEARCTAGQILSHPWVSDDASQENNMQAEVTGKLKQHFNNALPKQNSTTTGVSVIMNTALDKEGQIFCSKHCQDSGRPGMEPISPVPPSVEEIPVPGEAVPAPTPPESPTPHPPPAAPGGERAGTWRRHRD

[14] = biological target: Indoleamine 2,3-dioxygenase 1 (Homo sapiens, UniProt P14902); test: Inhibition of IDO1 in IFNgamma-stimulated human HeLa cells assessed as reduction in kynurenine formation measured after 48 hrs by spectrophotometry
Indoleamine 2,3-dioxygenase 1, sequence (P14902 whole entry): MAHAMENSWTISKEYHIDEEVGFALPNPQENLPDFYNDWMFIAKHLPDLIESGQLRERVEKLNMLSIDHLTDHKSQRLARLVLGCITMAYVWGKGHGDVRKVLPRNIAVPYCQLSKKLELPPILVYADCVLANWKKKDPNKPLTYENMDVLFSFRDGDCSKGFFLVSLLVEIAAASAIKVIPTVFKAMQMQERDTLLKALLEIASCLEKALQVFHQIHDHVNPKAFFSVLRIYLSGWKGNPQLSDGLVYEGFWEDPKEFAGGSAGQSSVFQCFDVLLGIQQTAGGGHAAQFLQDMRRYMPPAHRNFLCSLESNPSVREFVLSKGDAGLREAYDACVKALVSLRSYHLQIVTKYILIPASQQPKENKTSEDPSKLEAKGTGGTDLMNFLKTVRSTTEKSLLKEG

[15] = biological target: Wee1-like protein kinase (Homo sapiens) (UniProt P30291); test: Inhibition of WEE1 (unknown origin) at 1 uM
[16] = biological target: Mast/stem cell growth factor receptor Kit (Homo sapiens) (UniProt P10721); test: Inhibition of c-KIT (unknown origin) at 1 uM
[17] = biological target: Kinase suppressor of Ras 2 (Homo sapiens) (UniProt Q6VAB6); test: Inhibition of KSR2 (unknown origin) at 1 uM
[18] = biological target: Serine/threonine-protein kinase MRCK beta (Homo sapiens) (UniProt Q9Y5S2); test: Inhibition of MRCKbeta (unknown origin) at 1 uM
[19] = biological target: Mitogen-activated protein kinase 11 (Homo sapiens) (UniProt Q15759); test: Inhibition of p38beta (unknown origin) at 1 uM
[20] = biological target: Serine/threonine-protein kinase 32B (Homo sapiens) (UniProt Q9NY57); test: Inhibition of STK32B (unknown origin) at 1 uM
Serine/threonine-protein kinase 32B (Homo sapiens), sequence (Q9NY57 whole entry): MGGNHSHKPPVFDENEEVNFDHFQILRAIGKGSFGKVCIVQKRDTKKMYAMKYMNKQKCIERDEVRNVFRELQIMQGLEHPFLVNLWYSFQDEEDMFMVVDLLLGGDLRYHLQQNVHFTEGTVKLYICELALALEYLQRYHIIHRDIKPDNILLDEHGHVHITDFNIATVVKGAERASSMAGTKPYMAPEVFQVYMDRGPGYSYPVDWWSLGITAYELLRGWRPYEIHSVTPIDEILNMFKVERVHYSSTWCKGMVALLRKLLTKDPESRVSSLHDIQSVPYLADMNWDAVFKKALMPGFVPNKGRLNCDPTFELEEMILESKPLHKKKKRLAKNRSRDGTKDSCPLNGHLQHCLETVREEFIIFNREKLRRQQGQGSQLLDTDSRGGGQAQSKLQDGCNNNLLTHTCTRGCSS

[21] = Clearance in Sprague-Dawley rat at 5 mg/kg, iv; type: ADME, organism-based; details: in vivo
[22] = biological target: Ephrin type-A receptor 7 (Homo sapiens) (UniProt Q15375); test: Inhibition of EPHA7 (unknown origin) at 1 uM
[23] = biological target: Serine/threonine-protein kinase WNK1 (Homo sapiens) (UniProt Q9H4A3); test: Inhibition of WNK1 (unknown origin) at 1 uM
[24] = biological target: Dual specificity mitogen-activated protein kinase kinase 4 (Homo sapiens) (UniProt P45985); test: Inhibition of MKK4 (unknown origin) at 1 uM
[25] = biological target: Serine/threonine-protein kinase N1 (Homo sapiens) (UniProt Q16512); test: Inhibition of PKN1 (unknown origin) at 1 uM
[26] = biological target: Tyrosine-protein kinase ZAP-70 (Homo sapiens) (UniProt P43403); test: Inhibition of ZAP70 (unknown origin) at 1 uM
[27] = biological target: CDK1/Cyclin E (Homo sapiens) (UniProt P06493+P24864); test: Inhibition of CDK1/cyclinE (unknown origin) at 1 uM; type: protein-complex assay
[28] = biological target: Myosin light chain kinase (Homo sapiens) (UniProt Q32MK0); test: Inhibition of MYLK3 (unknown origin) at 1 uM
[29] = biological target: Ephrin type-B receptor 2 (Homo sapiens) (UniProt P29323); test: Inhibition of EPHB2 (unknown origin) at 1 uM
[30] = biological target: MAP/microtubule affinity-regulating kinase 4 (Homo sapiens) (UniProt Q96L34); test: Inhibition of MARK4 (unknown origin) at 1 uM
[31] = biological target: Mitogen-activated protein kinase 7 (Homo sapiens) (UniProt Q13164); test: Inhibition of ERK5 (unknown origin) at 1 uM
Mitogen-activated protein kinase 7 (Homo sapiens), sequence (Q13164 2-816 limits assumed): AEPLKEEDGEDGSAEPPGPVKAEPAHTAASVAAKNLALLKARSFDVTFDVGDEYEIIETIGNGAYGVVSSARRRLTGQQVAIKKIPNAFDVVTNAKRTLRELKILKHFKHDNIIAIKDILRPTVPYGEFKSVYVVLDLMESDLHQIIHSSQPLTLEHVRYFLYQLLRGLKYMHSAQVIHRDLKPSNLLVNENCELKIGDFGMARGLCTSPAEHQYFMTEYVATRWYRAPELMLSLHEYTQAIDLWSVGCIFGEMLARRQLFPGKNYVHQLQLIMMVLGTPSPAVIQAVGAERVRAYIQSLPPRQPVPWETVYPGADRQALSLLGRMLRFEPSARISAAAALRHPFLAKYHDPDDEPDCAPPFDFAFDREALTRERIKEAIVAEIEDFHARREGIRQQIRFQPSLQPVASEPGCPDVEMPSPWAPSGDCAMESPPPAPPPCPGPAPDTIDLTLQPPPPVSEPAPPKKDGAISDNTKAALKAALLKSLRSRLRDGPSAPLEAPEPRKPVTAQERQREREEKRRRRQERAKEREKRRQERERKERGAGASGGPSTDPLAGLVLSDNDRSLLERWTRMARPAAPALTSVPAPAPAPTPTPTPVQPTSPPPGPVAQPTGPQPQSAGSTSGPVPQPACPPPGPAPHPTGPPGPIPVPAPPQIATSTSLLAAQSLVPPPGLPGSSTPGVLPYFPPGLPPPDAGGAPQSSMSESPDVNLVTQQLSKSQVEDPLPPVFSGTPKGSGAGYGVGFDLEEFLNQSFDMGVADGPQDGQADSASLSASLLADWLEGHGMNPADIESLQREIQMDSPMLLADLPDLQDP

Mus musculus = test: In vivo inhibition of IDO1/IDO2 in BALB/c mouse xenografted with human HCT-116 cells assessed as downregulation of Foxp3 expression in tumor by immunohistochemical assay; type: functional, organism-based
[32] = biological target: Mitogen-activated protein kinase kinase kinase 21 (Homo sapiens) (UniProt Q5TCX8); test: Inhibition of MLK4 (unknown origin)at 1 uM
[33] = Metabolic stability in dog liver microsomes assessed as rate constant; type: ADME, Canis lupus familiaris, Microsome
HCT-116 [34] = test: Antitumor immunity in BALB/c mouse xenografted with human HCT-116 cells assessed as increase in TNFalpha in serum by […]; type: functional, cell-based
[35] = biological target: Ribosomal protein S6 kinase alpha-5 (Homo sapiens) (UniProt O75582); test: Inhibition of MSK1 (unknown origin) at 1 uM
[36] = biological target: Voltage-gated inwardly rectifying potassium channel KCNH2 (Homo sapiens, UniProt Q12809); test: Inhibition of human ERG
[37] = biological target: Mitogen-activated protein kinase 13 (Homo sapiens) (UniProt O15264); test: Inhibition of p38delta (unknown origin) at 1 uM
[38] = biological target: Aurora kinase C (Homo sapiens) (UniProt Q9UQB9); test: Inhibition of Aurora C (unknown origin) at 1 uM
[39] = biological target: Misshapen-like kinase 1 (Homo sapiens) (UniProt Q8N4C8); test: Inhibition of MINK1 (unknown origin) at 1 uM
[40] = biological target: Casein kinase II subunit alpha (Homo sapiens) (UniProt P68400); test: Inhibition of CK2A (unknown origin) at 1 uM
[41] = biological target: Serine/threonine-protein kinase 38-like (Homo sapiens) (UniProt Q9Y2H1); test: Inhibition of STK38L (unknown origin) at 1 uM
Serine/threonine-protein kinase 38-like (Homo sapiens), sequence (Q9Y2H1 2-464 limits assumed): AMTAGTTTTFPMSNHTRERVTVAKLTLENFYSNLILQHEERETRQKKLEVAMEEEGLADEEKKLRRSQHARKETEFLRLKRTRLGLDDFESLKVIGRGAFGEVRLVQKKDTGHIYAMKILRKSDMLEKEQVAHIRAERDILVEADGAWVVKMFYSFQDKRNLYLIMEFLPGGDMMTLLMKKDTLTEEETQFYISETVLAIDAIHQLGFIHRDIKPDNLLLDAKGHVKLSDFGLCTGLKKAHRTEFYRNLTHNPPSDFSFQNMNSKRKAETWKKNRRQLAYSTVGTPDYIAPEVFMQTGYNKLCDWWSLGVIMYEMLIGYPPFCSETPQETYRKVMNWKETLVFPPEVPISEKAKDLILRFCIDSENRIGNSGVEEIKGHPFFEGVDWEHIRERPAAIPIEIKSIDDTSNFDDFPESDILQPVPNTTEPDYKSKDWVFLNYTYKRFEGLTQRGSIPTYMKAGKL

[42] = biological target: Serine/threonine-protein kinase tousled-like 1 (Homo sapiens) (UniProt Q9UKI8); test: Inhibition of TLK1 (unknown origin) at 1 uM
Serine/threonine-protein kinase tousled-like 1 (Homo sapiens), sequence (Q9UKI8 whole entry): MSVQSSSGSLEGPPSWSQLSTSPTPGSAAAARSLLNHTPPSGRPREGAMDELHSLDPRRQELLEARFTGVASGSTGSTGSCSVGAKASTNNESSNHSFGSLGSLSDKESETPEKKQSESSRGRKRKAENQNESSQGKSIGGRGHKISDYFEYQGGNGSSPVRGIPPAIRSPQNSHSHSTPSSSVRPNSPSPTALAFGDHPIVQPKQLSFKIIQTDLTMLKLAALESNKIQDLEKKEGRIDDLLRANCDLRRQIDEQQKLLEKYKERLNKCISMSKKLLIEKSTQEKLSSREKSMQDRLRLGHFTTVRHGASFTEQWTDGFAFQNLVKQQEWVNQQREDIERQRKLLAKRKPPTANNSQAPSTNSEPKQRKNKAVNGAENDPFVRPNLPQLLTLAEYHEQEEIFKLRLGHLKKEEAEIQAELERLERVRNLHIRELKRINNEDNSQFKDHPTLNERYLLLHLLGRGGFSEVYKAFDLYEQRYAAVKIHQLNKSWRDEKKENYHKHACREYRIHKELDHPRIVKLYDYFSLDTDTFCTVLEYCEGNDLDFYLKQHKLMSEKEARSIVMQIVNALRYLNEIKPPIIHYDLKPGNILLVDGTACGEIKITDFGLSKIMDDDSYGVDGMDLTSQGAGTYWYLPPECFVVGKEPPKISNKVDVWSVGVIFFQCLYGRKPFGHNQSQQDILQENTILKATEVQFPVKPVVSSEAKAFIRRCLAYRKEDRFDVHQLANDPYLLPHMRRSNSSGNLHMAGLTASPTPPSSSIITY

[43] = biological target: Tyrosine-protein kinase Yes (Homo sapiens) (UniProt P07947); test: Inhibition of YES (unknown origin) at 1 uM

Which results are given for `OCCOCc1cn(CCNc2nonc2/C(=N/O)Nc2ccc(F)c(Br)c2)nn1`?
inhibition [1]: inactive; inhibition [2]: Active; inhibition [3]: inactive; inhibition [4]: inactive; inhibition [5]: inactive; Activity (HCT-116 [6]): 7.24%; k el [7]: 0.000545 s⁻¹; inhibition [8]: inactive; inhibition [9]: inactive; inhibition [10]: inactive; inhibition [11]: inactive; inhibition [12]: inactive; inhibition [13]: inactive; IC50 [14]: 2.16 nM; inhibition [15]: inactive; inhibition [16]: inactive; inhibition [17]: inactive; inhibition [18]: inactive; inhibition [19]: inactive; inhibition [20]: inactive; clearance [21]: 27.5 mL/min/kg; inhibition [22]: inactive; inhibition [23]: inactive; inhibition [24]: inactive; inhibition [25]: inactive; inhibition [26]: inactive; inhibition [27]: inactive; inhibition [28]: inactive; inhibition [29]: inactive; inhibition [30]: inactive; inhibition [31]: inactive; inhibition (Mus musculus): Active; inhibition [32]: inactive; k el [33]: 0.00205 s⁻¹; Activity (HCT-116 [34]): Active; inhibition [35]: inactive; IC50 [36]: > 30000 nM; inhibition [37]: inactive; inhibition [38]: inactive; inhibition [39]: inactive; inhibition [40]: inactive; inhibition [41]: inactive; inhibition [42]: inactive; inhibition [43]: inactive
